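Here, GI50 denotes the concentration required for 50% inhibition of growth. TGI: concentration producing complete growth inhibition.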
Tests used:
Assay in all cases: DTP human tumour cell line panel, 384-well format
786-0 renal = test system: 786-0 renal
A498 renal = test system: A498 renal
ACHN renal = test system: ACHN renal
BT-549 breast = test system: BT-549 breast
CAKI-1 renal = test system: CAKI-1 renal
CCRF-CEM leukemia = test system: CCRF-CEM leukemia
COLO 205 colon = test system: COLO 205 colon
DU-145 prostate = test system: DU-145 prostate
EKVX NSCLC = test system: EKVX NSCLC
HCC-2998 colon = test system: HCC-2998 colon
HCT-15 colon = test system: HCT-15 colon
HL-60(TB) leukemia = test system: HL-60(TB) leukemia
HOP-62 NSCLC = test system: HOP-62 NSCLC
HOP-92 NSCLC = test system: HOP-92 NSCLC
HS 578T breast = test system: HS 578T breast
HT29 colon = test system: HT29 colon
IGROV1 ovarian = test system: IGROV1 ovarian
K-562 leukemia = test system: K-562 leukemia
KM12 colon = test system: KM12 colon
LOX IMVI melanoma = test system: LOX IMVI melanoma
M14 melanoma = test system: M14 melanoma
MALME-3M melanoma = test system: MALME-3M melanoma
MCF7 breast = test system: MCF7 breast
MDA-MB-231 breast = test system: MDA-MB-231 breast
MDA-MB-435 melanoma = test system: MDA-MB-435 melanoma
MDA-MB-468 breast = test system: MDA-MB-468 breast
MOLT-4 leukemia = test system: MOLT-4 leukemia
NCI-H226 lung = test system: NCI-H226 lung
NCI-H23 lung = test system: NCI-H23 lung
NCI-H322M lung = test system: NCI-H322M lung
NCI-H460 NSCLC = test system: NCI-H460 NSCLC
NCI-H522 lung = test system: NCI-H522 lung
NCI/ADR-RES ovarian = test system: NCI/ADR-RES ovarian
OVCAR-3 ovarian = test system: OVCAR-3 ovarian
OVCAR-4 ovarian = test system: OVCAR-4 ovarian
OVCAR-5 ovarian = test system: OVCAR-5 ovarian
OVCAR-8 ovarian = test system: OVCAR-8 ovarian
PC-3 prostate = test system: PC-3 prostate
RPMI-8226 leukemia = test system: RPMI-8226 leukemia
RXF 393 renal = test system: RXF 393 renal
SF-268 CNS = test system: SF-268 CNS
SF-295 CNS = test system: SF-295 CNS
SF-539 CNS = test system: SF-539 CNS
SK-MEL-2 melanoma = test system: SK-MEL-2 melanoma
SK-MEL-28 melanoma = test system: SK-MEL-28 melanoma
SK-MEL-5 melanoma = test system: SK-MEL-5 melanoma
SK-OV-3 ovarian = test system: SK-OV-3 ovarian
SN12C renal = test system: SN12C renal
SNB-19 CNS = test system: SNB-19 CNS
SNB-75 CNS = test system: SNB-75 CNS
SR leukemia = test system: SR leukemia
SW-620 colon = test system: SW-620 colon
T-47D breast = test system: T-47D breast
U251 glioblastoma = test system: U251 glioblastoma
UACC-257 melanoma = test system: UACC-257 melanoma
UACC-62 melanoma = test system: UACC-62 melanoma
UO-31 renal = test system: UO-31 renal

SMILES: COc1ccc(F)cc1-c1ccnc2[nH]c(C3=CCN(C4CCC(CC(=O)O)CC4)CC3)cc12 (centres undefined)
- GI50 ([…]-0 renal): 82.4 nM
- TGI (786-0 renal): 266 nM
- GI50 (A498 renal): 86.4 nM
- GI50 (ACHN renal): 156 nM
- GI50 (BT-549 breast): 53.4 nM
- TGI (BT-549 breast): 145 nM
- GI50 (CAKI-1 renal): 111 nM
- TGI (CAKI-1 renal): 465 nM
- GI50 (CCRF-CEM leukemia): 21.8 nM
- TGI (CCRF-CEM leukemia): 57.8 nM
- GI50 (COLO 205 colon): 33.6 nM
- TGI (COLO 205 colon): 188 nM
- GI50 (DU-145 prostate): 115 nM
- TGI (DU-145 prostate): 1820 nM
- GI50 (EKVX NSCLC): 150 nM
- TGI (EKVX NSCLC): 437 nM
- GI50 (HCC-2998 colon): 110 nM
- TGI (HCC-2998 colon): 432 nM
- GI50 (HCT-15 colon): 63.7 nM
- TGI (HCT-15 colon): 2320 nM
- GI50 (HL-60(TB) leukemia): 15.1 nM
- TGI (HL-60(TB) leukemia): 32.5 nM
- GI50 (HOP-62 NSCLC): 52.4 nM
- TGI (HOP-62 NSCLC): 194 nM
- GI50 (HOP-92 NSCLC): 94.1 nM
- GI50 (HS 578T breast): 19 nM
- TGI (HS 578T breast): 55.7 nM
- GI50 (HT29 colon): 184 nM
- TGI (HT29 colon): 606 nM
- GI50 (IGROV1 ovarian): 77.1 nM
- TGI (IGROV1 ovarian): > 100000 nM
- GI50 (K-562 leukemia): 136 nM
- TGI (K-562 leukemia): 521 nM
- GI50 (KM12 colon): 28.9 nM
- TGI (KM12 colon): 240 nM
- GI50 (LOX IMVI melanoma): 33.6 nM
- TGI (LOX IMVI melanoma): 141 nM
- GI50 (M14 melanoma): 87.2 nM
- TGI (M14 melanoma): 304 nM
- GI50 (MALME-3M melanoma): 63 nM
- TGI (MALME-3M melanoma): 197 nM
- GI50 (MCF7 breast): 31.1 nM
- TGI (MCF7 breast): 12000 nM
- GI50 (MDA-MB-231 breast): 70.1 nM
- TGI (MDA-MB-231 breast): 362 nM
- GI50 (MDA-MB-435 melanoma): 130 nM
- TGI (MDA-MB-435 melanoma): 411 nM
- GI50 (MDA-MB-468 breast): 34.1 nM
- TGI (MDA-MB-468 breast): 118 nM
- GI50 (MOLT-4 leukemia): 36.6 nM
- TGI (MOLT-4 leukemia): 121 nM
- GI50 (NCI-H226 lung): 116 nM
- TGI (NCI-H226 lung): 451 nM
- GI50 (NCI-H23 lung): 49.5 nM
- TGI (NCI-H23 lung): 195 nM
- GI50 (NCI-H322M lung): 113 nM
- TGI (NCI-H322M lung): 367 nM
- GI50 (NCI-H460 NSCLC): 63.4 nM
- TGI (NCI-H460 NSCLC): 183 nM
- GI50 (NCI-H522 lung): 131 nM
- TGI (NCI-H522 lung): 306 nM
- GI50 (NCI/ADR-RES ovarian): 1220 nM
- TGI (NCI/ADR-RES ovarian): 4590 nM
- GI50 (OVCAR-3 ovarian): 33.4 nM
- TGI (OVCAR-3 ovarian): 183 nM
- GI50 (OVCAR-4 ovarian): 158 nM
- TGI (OVCAR-4 ovarian): 492 nM
- GI50 (OVCAR-5 ovarian): 115 nM
- TGI (OVCAR-5 ovarian): 31600 nM
- GI50 (OVCAR-8 ovarian): 54.6 nM
- TGI (OVCAR-8 ovarian): 238 nM
- GI50 (PC-3 prostate): 124 nM
- TGI (PC-3 prostate): 520 nM
- GI50 (RPMI-8226 leukemia): 42.2 nM
- TGI (RPMI-8226 leukemia): 138 nM
- GI50 (RXF 393 renal): 18.3 nM
- TGI (RXF 393 renal): 53.7 nM
- GI50 (SF-268 CNS): 22.3 nM
- TGI (SF-268 CNS): 84.4 nM
- GI50 (SF-295 CNS): 171 nM
- TGI (SF-295 CNS): 456 nM
- GI50 (SF-539 CNS): 104 nM
- TGI (SF-539 CNS): 277 nM
- GI50 (SK-MEL-2 melanoma): 49.3 nM
- TGI (SK-MEL-2 melanoma): 176 nM
- GI50 (SK-MEL-28 melanoma): 39.1 nM
- TGI (SK-MEL-28 melanoma): 202 nM
- GI50 (SK-MEL-5 melanoma): 48.7 nM
- TGI (SK-MEL-5 melanoma): 156 nM
- GI50 (SK-OV-3 ovarian): 398 nM
- TGI (SK-OV-3 ovarian): > 25900 nM
- GI50 (SN12C renal): 59.7 nM
- TGI (SN12C renal): 282 nM
- GI50 (SNB-19 CNS): 78.7 nM
- TGI (SNB-19 CNS): > 68300 nM
- GI50 (SNB-75 CNS): 48.3 nM
- TGI (SNB-75 CNS): 172 nM
- TGI (SR leukemia): < 14.1 nM
- GI50 (SW-620 colon): 62.3 nM
- TGI (SW-620 colon): 588 nM
- GI50 (T-47D breast): 72 nM
- GI50 (U251 glioblastoma): 142 nM
- TGI (U251 glioblastoma): 490 nM
- GI50 (UACC-257 melanoma): 138 nM
- TGI (UACC-257 melanoma): 288 nM
- GI50 (UACC-62 melanoma): < 16.4 nM
- TGI (UACC-62 melanoma): 87.5 nM
- GI50 (UO-31 renal): 102 nM
- TGI (UO-31 renal): 691 nM

Source: PubChem BioAssay (NCI)
